Measured values published in US20220169632A1, “METHODS AND MATERIALS FOR INCREASING OR MAINTAINING NICOTINAMIDE MONONUCLEOTIDE ADENYLYL TRANSFERASE-2 (NMNAT2) POLYPEPTIDE LEVELS” (University of Pittsburgh - Of the Commonwealth System of …, priority 2019, published 2022).

Each compound was assayed on NMNAT2 (assay: NMNAT2-Hibit nano-luciferase activity in transfected U87MG cells, 25 μM, 24 hours). Settings: NMNAT2-Hibit luc plasmid, 24 hours (Table B).
Assay type: cell-based
Experimental: Selected compounds were tested in vitro. Briefly, U87MG cells were transfected with NMNAT2-Hibit luc plasmid. Cells were treated with a test compound at 25 μM for 24 hours. Cells were then collected and assayed for nano-luciferase activity.

SMILES	B: compound efficacy (IC50) for NMNAT2 activation; increase in NMNAT2 luciferase activity
Cc1cccc(CCNC(=O)NCc2noc3ccccc23)c1 [Compound 181023]	+ (“+” <20% increase in NMNAT2 luciferase activity.)
CCc1ccccc1NC(=O)NCc1noc2ccccc12 [Compound 181024]	+ (“+” <20% increase in NMNAT2 luciferase activity.)
O=C(NCc1cccc(Cl)c1)NCc1noc2ccccc12 [Compound 181025]	+ (“+” <20% increase in NMNAT2 luciferase activity.)
COc1ccc(NC(=O)NCc2noc3ccccc23)cc1 [Compound 181026]	+ (“+” <20% increase in NMNAT2 luciferase activity.)
O=C(NCc1noc2ccccc12)Nc1ccccc1Cl [Compound 181027]	+ (“+” <20% increase in NMNAT2 luciferase activity.)
O=C(NCc1noc2ccccc12)Nc1ccc(Cl)cc1 [Compound 181028]	+ (“+” <20% increase in NMNAT2 luciferase activity.)
O=C(NCc1ccc(Cl)cc1)NCc1noc2ccccc12 [Compound 181029]	++ (“++” >20% and <100% increase in NMNAT2 luciferase activity.)
Cc1ccc(CCNC(=O)NCc2noc3ccccc23)cc1 [Compound 181030]	+ (“+” <20% increase in NMNAT2 luciferase activity.)
CC(=O)c1cccc(NC(=O)NCc2noc3ccccc23)c1 [Compound 181031]	+ (“+” <20% increase in NMNAT2 luciferase activity.)
CN(C(=O)NCc1noc2ccccc12)c1ccc(F)cc1 [Compound 181032]	+ (“+” <20% increase in NMNAT2 luciferase activity.)
CSc1ccc(CCNC(=O)NCc2noc3ccccc23)cc1 [Compound 181033]	++ (“++” >20% and <100% increase in NMNAT2 luciferase activity.)
CC(NC(=O)NCc1noc2ccccc12)c1ccccc1 (stereo not drawn) [Compound 181034]	+ (“+” <20% increase in NMNAT2 luciferase activity.)
Cc1cc(C)cc(NC(=O)NCc2noc3ccccc23)c1 [Compound 181035]	+ (“+” <20% increase in NMNAT2 luciferase activity.)
O=C(NCc1ccccc1)NCc1noc2ccccc12 [Compound 181036]	+ (“+” <20% increase in NMNAT2 luciferase activity.)
Cc1ccc2onc(CNC(=O)Nc3cccc(C(F)(F)F)c3)c2c1 [Compound 181037]	+ (“+” <20% increase in NMNAT2 luciferase activity.)
Cc1ccc(NC(=O)NCc2noc3ccc(C)cc23)c(Br)c1 [Compound 181038]	+ (“+” <20% increase in NMNAT2 luciferase activity.)
Cc1ccc2onc(CNC(=O)Nc3ccc(C)c(F)c3)c2c1 [Compound 181039]	+ (“+” <20% increase in NMNAT2 luciferase activity.)
Cc1ccc2onc(CNC(=O)Nc3ccc(F)c(Cl)c3)c2c1 [Compound 181040]	+ (“+” <20% increase in NMNAT2 luciferase activity.)
COc1ccc(NC(=O)NCc2noc3ccc(C)cc23)cc1Cl [Compound 181041]	+ (“+” <20% increase in NMNAT2 luciferase activity.)
Cc1ccc2onc(CNC(=O)Nc3ccc(F)cc3F)c2c1 [Compound 181042]	+ (“+” <20% increase in NMNAT2 luciferase activity.)
Cc1ccc2onc(CNC(=O)Nc3ccccc3F)c2c1 [Compound 181043]	+ (“+” <20% increase in NMNAT2 luciferase activity.)
COc1ccccc1CNC(=O)NCc1noc2ccc(C)cc12 [Compound 181044]	+ (“+” <20% increase in NMNAT2 luciferase activity.)
Cc1ccc2onc(CNC(=O)N3CCN(c4cccc(Cl)c4)CC3)c2c1 [Compound 181045]	+ (“+” <20% increase in NMNAT2 luciferase activity.)
Cc1ccc2onc(CNC(=O)NC3CCCC(C)C3C)c2c1 (stereo not drawn) [Compound 181046]	+ (“+” <20% increase in NMNAT2 luciferase activity.)
Cc1ccc2onc(CNC(=O)NCc3ccc(F)cc3)c2c1 [Compound 181047]	++ (“++” >20% and <100% increase in NMNAT2 luciferase activity.)
COCCCNC(=O)NCc1noc2ccc(C)cc12 [Compound 181048]	++ (“++” >20% and <100% increase in NMNAT2 luciferase activity.)
Cc1ccc2onc(CNC(=O)NC3CCCCCC3)c2c1 [Compound 181049]	+ (“+” <20% increase in NMNAT2 luciferase activity.)

SMILES	B: compound efficacy (IC50) for NMNAT2 activation; increase in NMNAT2 luciferase activity
Cc1ccc2onc(CNC(=O)NCc3ccccn3)c2c1 [Compound 181050]	+ (“+” <20% increase in NMNAT2 luciferase activity.)
Cc1ccc2onc(CNC(=O)NCc3cccnc3)c2c1 [Compound 181051]	+ (“+” <20% increase in NMNAT2 luciferase activity.)
CCc1ccc(NC(=O)NCc2noc3ccc(C)cc23)cc1 [Compound 181052]	+ (“+” <20% increase in NMNAT2 luciferase activity.)
Cc1ccc2onc(CNC(=O)Nc3ccc(C(C)C)cc3)c2c1 [Compound 181053]	+ (“+” <20% increase in NMNAT2 luciferase activity.)
CCN(C(=O)NCc1noc2ccc(C)cc12)c1cccc(Cl)c1 [Compound 181054]	+ (“+” <20% increase in NMNAT2 luciferase activity.)
Cc1ccc2onc(CNC(=O)N(C)c3cccc(Cl)c3)c2c1 [Compound 181055]	+ (“+” <20% increase in NMNAT2 luciferase activity.)
Cc1ccc2onc(CNC(=O)N(C)c3ccc(C)c(C)c3)c2c1 [Compound 181056]	+ (“+” <20% increase in NMNAT2 luciferase activity.)
Cc1ccc2onc(CNC(=O)N(C)c3ccccc3Cl)c2c1 [Compound 181057]	+ (“+” <20% increase in NMNAT2 luciferase activity.)
Cc1cccc(N(C)C(=O)NCc2noc3ccc(C)cc23)c1 [Compound 181058]	+ (“+” <20% increase in NMNAT2 luciferase activity.)
Cc1ccc2onc(CNC(=O)NCCc3ccc(Cl)cc3)c2c1 [Compound 181059]	+ (“+” <20% increase in NMNAT2 luciferase activity.)
COc1ccc(CNC(=O)NCc2noc3ccc(C)cc23)cc1 [Compound 181060]	++ (“++” >20% and <100% increase in NMNAT2 luciferase activity.)
CCCN(C(=O)NCc1noc2ccc(C)cc12)c1ccc(Cl)c(Cl)c1 [Compound 181061]	+ (“+” <20% increase in NMNAT2 luciferase activity.)
Cc1ccc(NC(=O)NCc2noc3ccc(C)cc23)c(Cl)c1 [Compound 181062]	+ (“+” <20% increase in NMNAT2 luciferase activity.)
Cc1ccc2onc(CNC(=O)NC3CC3)c2c1 [Compound 181063]	+ (“+” <20% increase in NMNAT2 luciferase activity.)
CCn1c2ccccc2c2cc(NC(=O)NCc3noc4ccc(C)cc34)ccc21 [Compound 181064]	+ (“+” <20% increase in NMNAT2 luciferase activity.)
Cc1ccc2onc(CNC(=O)NC3CCN(Cc4ccccc4)CC3)c2c1 [Compound 181065]	+ (“+” <20% increase in NMNAT2 luciferase activity.)
Cc1ccc2onc(CNC(=O)Nc3cccc(C#N)c3)c2c1 [Compound 181066]	+ (“+” <20% increase in NMNAT2 luciferase activity.)
CCc1cccc(NC(=O)NCc2noc3ccc(C)cc23)c1 [Compound 181067]	+ (“+” <20% increase in NMNAT2 luciferase activity.)
CCc1ccc(CNC(=O)NCc2noc3ccc(C)cc23)cc1 [Compound 181068]	++ (“++” >20% and <100% increase in NMNAT2 luciferase activity.)
Cc1ccc(CNC(=O)NCc2noc3ccc(C)cc23)cc1 [Compound 181069]	++ (“++” >20% and <100% increase in NMNAT2 luciferase activity.)
CCCCN(C)CCNC(=O)NCc1noc2ccc(C)cc12 [Compound 181070]	+ (“+” <20% increase in NMNAT2 luciferase activity.)
Cc1ccc2onc(CNC(=O)NC3CCCC3)c2c1 [Compound 181071]	+ (“+” <20% increase in NMNAT2 luciferase activity.)
COc1ccc(OC)c(CNC(=O)NCc2noc3ccc(C)cc23)c1 [Compound 181072]	+ (“+” <20% increase in NMNAT2 luciferase activity.)
Cc1ccc2onc(CNC(=O)NCCN(C)Cc3ccccc3)c2c1 [Compound 181073]	+ (“+” <20% increase in NMNAT2 luciferase activity.)
Cc1ccc2onc(CNC(=O)Nc3ccccc3C)c2c1 [Compound 181074]	+ (“+” <20% increase in NMNAT2 luciferase activity.)
CCc1ccccc1NC(=O)NCc1noc2ccc(C)cc12 [Compound 181075]	+ (“+” <20% increase in NMNAT2 luciferase activity.)
COc1cccc(CNC(=O)NCc2noc3ccc(C)cc23)c1 [Compound 181076]	+ (“+” <20% increase in NMNAT2 luciferase activity.)
